Measurements: US20130203668A1, “PHARMACEUTICAL COMPOSITION COMPRISING ANTIPLATELET AGENTS AND AN ERYTHROPOIESIS STIMULATING AGENT” (CADILA HEALTHCARE LIMITED, priority 2010, published 2013)

Assays:
[1] = tested on: platelet rich plasma (PRP); assay: Effect of clopidogrel and aspirin on rHuEPO-induced platelet reactivity, ex vivo platelet aggregation; format: in vivo, male Wistar rats; settings: for Effect on platelet aggregatory response in rHuEPO treated rats (in words): rHuEPO (25 μg/kg, S.C.) treated rats, clopidogrel 2.5 mg/kg p.o., aspirin 75 mg/kg p.o.; for % platelet aggregation: rHuEPO 25 μg/kg s.c., Clopidogrel 2.5 mg/kg p.o., Aspirin 75 mg/kg p.o.
Method: (§1) Six to eight week old male Wistar rats used and the methods and procedures described here have been reviewed and approved by the Institutional Animal Ethics Committee (IAEC). Wistar male rats were divided in groups [each group containing 6 animals (n=6)]. Control animal received vehicle only (0.9% w/v NaCl normal saline), treatment groups received three consecutive doses of Recombinant Human Erythropoietin (25 and 50 μg/kg, s.c.) at an interval of 24 hour. Blood collection was performed at 48 hour after the last injection of Erythropoietin in citrated tubes. Platelet rich plasma (PRP) was separated. Determination of ex-vivo platelet aggregation was performed by using 1) ADP as aggregation inducing agent 2) Arachidonic acid as aggregation inducing agent 3) Thrombin as aggregation inducing agent and 4) Collagen as aggregation inducing agent. Platelet aggregation was performed by turbidometric method using high through put 96-well plate. Optical density was measured at 405 nm by Spectra Max plate reader. […] Increase in platelet aggregatory response meaning increase in platelet reactivity when same concentration of aggregating agent is used.
Six to eight week old male Wistar rats were divided in groups [each group containing 6 animals (n=6)]. Control animal received vehicle only (0.9% w/v NaCl normal saline), treatment groups received three consecutive doses of Recombinant Human Erythropoietin (25 μg/kg, s.c.) at an interval of 24 hour. Aspirin (75 mg/kg p.o.), and Clopidogrel (2.5 mg/kg, p.o.) were dosed individually and in combination with each other to respective groups at 48 hour after the last injection of erythropoietin. Blood collection was performed after 2 hours of antiplatelet treatment. Platelet rich plasma (PRP) was separated. Determination of ex-vivo platelet aggregation was performed by using 1) ADP as aggregation inducing agent 2) Arachidonic acid as aggregation inducing agent 3) Thrombin as aggregation inducing agent and 4) Collagen as aggregation inducing agent.

[2] = tested on: platelet rich plasma (PRP); assay: Ex vivo ADP-induced platelet aggregation in 5/6 nephrectomized rats (chronic kidney disease model); design: species or system male Wistar rats; settings: i.v. 3 times a week for 4 weeks; for Platelet aggregation (%) Average: 2.5 μM ADP, 5/6 nephrectomized rats, EPO 500 IU/kg, Clopi 10 mg/kg
Text: (§2) Six to eight week old male Wistar rats used and the methods and procedures described here have been reviewed and approved by the Institutional Animal Ethics Committee (IAEC). We used human therapeutic dose of rHuEPO in rats and same frequency of administration as in humans (Kirkeby A et al., Thromb Haemost, 2008; 99:720-728). A 5/6 nephrectomy has been performed on male wistar rats (Toba H et al., European Journal of Pharmacology 656, 2011, 81-87) and treatment has been started after one month of nephrectomy.
(§3) The rats were divided into 5 groups (n=6): 1) a control group, which received a sham operation (SHAM control); 2) a 5/6 nephrectomized group (NPX), removed the upper and lower poles of the left kidney and after one week the entire right kidney under anesthesia (NPX vehicle); 3) a 5/6 nephrectomy+rHuEPO group, nephrectomized and injected with rHuEPO at 500 IU/kg 3 times a week intravenously (i.v.) for 4 weeks (NPX+EPO); 4) a 5/6 nephrectomized+rHuEPO+clopidogrel group, nephrectomized and administered with rHuEPO (500 IU/kg)+clopidogrel (10 mg/kg) every 3 times a week intravenously (i.v.) for 4 weeks. 5) a 5/6 nephrectomized+clopidogrel group, nephrectomized and administered with rHuEPO (500 IU/kg)+clopidogrel (10 mg/kg) every 3 times a week intravenously (i.v.) for 4 weeks.
(§4) After 4 weeks of treatment, blood samples were collected via retro-orbital route in tubes containing 3.8% tri-sodium citrate for the collection of platelet rich plasma (PRP) for ADP-induced platelet aggregation studies. Blood samples were also collected for hematological analysis in tubes containing 5% EDTA. Serum samples were used for measurement of various kidney biomarkers such as creatinine, urea, uric acid, blood urea nitrogen and total protein.
Increase in platelet aggregatory response meaning increase in platelet reactivity when same concentration of aggregating agent is used.

[3] = Hematological parameters in 5/6 nephrectomized rats (chronic kidney disease model); format: in vivo, male Wistar rats; settings: i.v. 3 times a week for 4 weeks; for Hematocrit (%) Average / Hemoglobin (g/dL) Average / RBC count (10^6/μL) Average: 5/6 nephrectomized rats, EPO 500 IU/kg, Clopi 10 mg/kg
Text: as §2, §3, §4

[4] = tested on: platelet rich plasma (PRP); assay: Effect of rHuEPO on platelet reactivity, ex vivo platelet aggregation (ADP, arachidonic acid, thrombin, collagen); format: in vivo, male Wistar rats; settings: for % platelet aggregation: s.c. treated rats
Method: as §1

[5] = Kidney biomarkers in serum of 5/6 nephrectomized rats (chronic kidney disease model); format: in vivo, male Wistar rats; settings: i.v. 3 times a week for 4 weeks
Text: as §2, §3, §4
There was increase in the serum creatinine, serum urea, serum uric acid, blood urea nitrogen and decrease in serum total protein in nephrectomized animals. […] There was improvement in the kidney function when combination of rHuEPO and antiplatelet agent has been given every 3 times a week intravenously (i.v.) for 4 weeks in nephrectomized rats (FIGS. 6a, 6b, 6c, 6d and 6e).

[6] = Bleeding time, tail transaction test; format: in vivo, male Wistar rats; settings: rHuEPO 25 μg/kg s.c., Clopidogrel 2.5 mpk, Aspirin 75 mpk; Wistar rats
Method: Six to eight week old male Wistar rats were divided in groups [each group containing 6 animals (n=6)]. Control animal received vehicle only (0.9% w/v NaCl normal saline), treatment groups received three consecutive doses of Recombinant Human Erythropoietin (25 μg/kg, S.C.) at an interval of 24 hour. Aspirin (75 mg/kg p.o.), and Clopidogrel (2.5 mg/kg, p.o.) individually and in combination with each other were dosed to respective groups at 48 hour after the last injection of Erythropoietin. Bleeding time experiment using tail transaction test was performed.

[7] = 5/6 nephrectomized rats, EPO 500 IU/kg, Clopi 10 mg/kg

Molecule: CC(=O)Oc1ccccc1C(=O)O [Aspirin, reference compound]
- Effect on platelet aggregatory response in rHuEPO treated rats (in words) [1]: further normalizes the hyper reactive platelets

Molecule: COC(=O)[C@H](c1ccccc1Cl)N1CCc2sccc2C1 [Clopidogrel, reference compound]
- Platelet aggregation (%) Average [2]: −2%
- Hematocrit (%) Average [3]: 46.07%
- Hemoglobin (g/dL) Average [3]: 14.77 g/dL
- RBC count (10^6/μL) Average [3]: 8.52 10^6/μL
- Effect on platelet aggregatory response in rHuEPO treated rats (in words) [1]: platelet aggregatory response is normalized

Molecule: Recombinant Human Erythropoietin [rHuEPO]
- Platelet aggregation (%) Average [2]: 55%
- Effect on platelet aggregatory response in nephrectomized rats (in words) ([2]; ADP, rHuEPO 500 IU/kg, clopidogrel 10 mg/kg): platelet aggregation increases
- % platelet aggregation ([4]; ADP (1.25 μM), rHuEPO 25 μg/kg, 3 doses, blood 48 h after last dose): 59.1 ± 3.2%
- % platelet aggregation ([4]; ADP (1.25 μM), rHuEPO 50 μg/kg, 3 doses, blood 48 h after last dose): 66.4 ± 4.5%
- % platelet aggregation ([4]; Arachidonic acid (150 μM), rHuEPO 25 μg/kg): 50.6 ± 3.1%
- % platelet aggregation ([4]; Arachidonic acid (150 μM), rHuEPO 50 μg/kg): 61.3 ± 3.4%
- % platelet aggregation ([4]; Collagen (0.25 μg/ml), rHuEPO 25 μg/kg): 30.5 ± 2.0%
- % platelet aggregation ([4]; Collagen (0.25 μg/ml), rHuEPO 50 μg/kg): 45.9 ± 3.2%
- % platelet aggregation ([4]; Collagen (0.5 μg/ml), rHuEPO 25 μg/kg): 56.9 ± 1.7%
- % platelet aggregation ([4]; Collagen (0.5 μg/ml), rHuEPO 50 μg/kg): 65.9 ± 1.7%
- % platelet aggregation ([4]; Thrombin (0.0125 IU/ml), rHuEPO 25 μg/kg): 37.7 ± 3.0%
- % platelet aggregation ([4]; Thrombin (0.0125 IU/ml), rHuEPO 50 μg/kg): 59.5 ± 4.4%
- Effect on platelet aggregation (in words) ([4]; rHuEPO 25 and 50 μg/kg, s.c., constant concentration of aggregating agents): causes increase in platelet aggregation
- Blood urea nitrogen mg/dL Average [5, 7]: 64.33 mg/dL
- Serum creatinine mg/dL Average [5, 7]: 0.74 mg/dL
- Serum urea mg/dL Average [5, 7]: 134.33 mg/dL
- Serum uric acid mg/dL Average [5, 7]: 1.4 mg/dL
- Total protein g/dL Average [5, 7]: 6.13 g/dL
- Effect on kidney function / kidney biomarkers (in words) ([5]; nephrectomized rats): further increase in the serum creatinine, serum urea, serum uric acid, blood urea nitrogen
- Bleeding Time [6]: 165 ± 28.1 s
- Hematocrit (%) Average [3]: 62.3%
- Hemoglobin (g/dL) Average [3]: 20.4 g/dL
- RBC count (10^6/μL) Average [3]: 11.13 10^6/μL
- Effect on hematological parameters (in words) ([3]; nephrectomized rats): increase in RBC count, hemoglobin and hematocrit
- % platelet aggregation ([1]; ADP (1.25 μM), blood 2 h after antiplatelet treatment): 59.5 ± 1.4%
- % platelet aggregation ([1]; Arachidonic acid (150 μM)): 44.4 ± 2.5%
- % platelet aggregation ([1]; Collagen (0.25 μg/ml)): 60.03 ± 1.9%
- % platelet aggregation ([1]; Thrombin (0.025 IU/ml)): 70.8 ± 1.0%
